Measurements published in patent US20090170826A1, “Acid Addition Salt of Optically Active Dihydropyridine Derivative” (Daiichi Sankyo Company ,Limited, priority 2005, published 2009).

What was measured:
[1] = Absorbability test in dog; type: in vivo; conditions: fasted male beagle, ranitidine pretreated, oral 10 mg/body in 0.5% methyl cellulose, plasma; for AUC(0-t): read-out: AUC0-24 h
Experimental: Ranitidine (2.5 mg/kg) was intramuscularly injected to the posterior region of thigh of a fasted male beagle (body weight: about 10 kg, n=6) to make the intragastric pH acidic 30 minutes before, immediately before and 30 minutes after administration of the test compound. The test compound was suspended in a 0.5% methyl cellulose solution at a dose of 10 mg/body and orally administered. About 3 ml of blood was collected from the median antebrachial vein using a heparin-treated glass syringe 0.5, 1, 2, 3, 4, 6, 8 and 24 hours after the administration. The collected blood was centrifuged to obtain plasma which was cryopreserved at −20° C. until measurement of the concentration of the test compound. One hundred μl of thawed plasma was mixed with 300 μl of an internal standard solution [a methanol solution of the d3-compound (Ia), 5 ng/ml] and centrifuged. The supernatant was filtered through a filter and the filtrate was analyzed by LC/MS/MS.
A calibration curve was prepared by the same operation as above using each 100 μl of a calibration curve standard solution [a methanol solution of the compound (Ia), 0.5-400 ng/ml] which had been adjusted to respective concentrations in place of 100 μl of dog plasma.
The LC/MS/MS analysis conditions are shown below.
The area under the concentration in plasma-time curve (AUC0-24h) and the maximum concentration in plasma (Cmax) as pharmacokinetic parameters indicative of drug absorbability were calculated from the results obtained according to the aforementioned method using the compounds of Example 1, Example 2 (2C) and Comparative Example 4 as test compounds.

[2] = Thermal stability test (residual rate of compound (I) by HPLC); type: physicochemical
Experimental: The test compound was placed in a glass bottle and allowed to stand under the following conditions (1) and (2).
(1): Closed state, 60° C.;
The measurement conditions in high performance liquid chromatography are as follows.
Column: L-column ODS [4.6 mm×250 mm, manufactured by Chemicals Evaluation and Research Institute, Japan]
Column temperature: 40° C.
Detection wavelength: 220 nm
The residual rate (%) was calculated by the following formula.
The residual rate (%)=[1−(sum of peak area percentages of impurities and decomposed products)]×100

[3] = Condition (1): closed state, 60° C., 1 month
[4] = Condition (1): closed state, 60° C., time 0
[5] = Condition (2): non-closed state, 40° C., humidity 75%, 1 month
[6] = Condition (2): non-closed state, 40° C., humidity 75%, 1 week
[7] = Condition (2): non-closed state, 40° C., humidity 75%, time 0
[8] = Condition (1): closed state, 60° C., 1 week
[9] = Condition (1): closed state, 60° C., 3 months

Molecule | Cmax [1] [ng/mL] | AUC(0-t) [1] [ng·h/mL] | Residual rate of Compound (I) (%) [2, 3] [%] | Residual rate of Compound (I) (%) [2, 4] [%] | Residual rate of Compound (I) (%) [2, 5] [%] | Residual rate of Compound (I) (%) [2, 6] [%] | Residual rate of Compound (I) (%) [2, 7] [%] | Residual rate of Compound (I) (%) [2, 8] [%] | Residual rate of Compound (I) (%) [2, 9] [%] | other results
Br.Br.CC1=C(C(=O)OC(C)C)[C@@H](c2cccc([N+](=O)[O-])c2)C(C(=O)OC2CN(C(c3ccccc3)c3ccccc3)C2)=C(N)N1.O.O [Example 2, (R)-2-Amino-1,4-dihydro-6-methyl-4-(3-nitro-phenyl)-3,5-pyridinedicarboxylic Acid 3-(1-diphenylmethyl-azetidin-3-yl) Ester 5-isopropyl Ester Dihydrobromide dihydrate] | 230 | 1930 | 94.2 | 99.8 | 92.1 | 95.5 | 99.8 |  |  | Residual rate of Compound (I) (%) ([2]; Condition (1): closed state, 60° C., 1 month, listed as Example 2A, Dihydrobromide dihydrate): 99.7%; Residual rate of Compound (I) (%) ([2]; Condition (1): closed state, 60° C., 1 week, listed as Example 2A, Dihydrobromide dihydrate): 99.8%; Residual rate of Compound (I) (%) ([2]; Condition (1): closed state, 60° C., 1 week, listed as Example 2C, Dihydrobromide dihydrate): 95.0%; Residual rate of Compound (I) (%) ([2]; Condition (1): closed state, 60° C., 3 months, listed as Example 2A, Dihydrobromide dihydrate): 99.7%; Residual rate of Compound (I) (%) ([2]; Condition (1): closed state, 60° C., 3 months, listed as Example 2C, Dihydrobromide dihydrate): 94.5%; Residual rate of Compound (I) (%) ([2]; Condition (1): closed state, 60° C., time 0, listed as Example 2C, Dihydrobromide dihydrate): 99.1%; Residual rate of Compound (I) (%) ([2]; Condition (2): non-closed state, 40° C., humidity 75%, 1 month, listed as Example 2A, Dihydrobromide dihydrate): 99.6%; Residual rate of Compound (I) (%) ([2]; Condition (2): non-closed state, 40° C., humidity 75%, 1 week, listed as Example 2A, Dihydrobromide dihydrate): 99.7%; Residual rate of Compound (I) (%) ([2]; Condition (2): non-closed state, 40° C., humidity 75%, 3 months, listed as Example 2A, Dihydrobromide dihydrate): 99.4%; Residual rate of Compound (I) (%) ([2]; Condition (2): non-closed state, 40° C., humidity 75%, 3 months, listed as Example 2C, Dihydrobromide dihydrate): 90.6%; Residual rate of Compound (I) (%) ([2]; Condition (2): non-closed state, 40° C., humidity 75%, time 0, listed as Example 2C, Dihydrobromide dihydrate): 99.1%
CC1=C(C(=O)OC(C)C)[C@@H](c2cccc([N+](=O)[O-])c2)C(C(=O)OC2CN(C(c3ccccc3)c3ccccc3)C2)=C(N)N1 [Comparative Example 4, (R)-2-Amino-1,4-dihydro-6-methyl-4-(3-nitrophenyl)-3,5-pyridinedicarboxylic Acid 3-(1-diphenylmethylazetidin-3-yl) Ester 5-isopropyl Ester, reference compound] | 161 | 1500 |  |  |  |  |  |  |  | 
CC1=C(C(=O)OC(C)C)[C@@H](c2cccc([N+](=O)[O-])c2)C(C(=O)OC2CN(C(c3ccccc3)c3ccccc3)C2)=C(N)N1.Cl.Cl.O.O [Example 1, (R)-2-Amino-1,4-dihydro-6-methyl-4-(3-nitro-phenyl)-3,5-pyridinedicarboxylic Acid 3-(1-diphenylmethyl-azetidin-3-yl) Ester 5-isopropyl Ester Dihydrochloride dihydrate] | 168 | 1660 | 95.3 | 99.4 | 96.0 | 97.8 | 99.4 | 96.6 | 92.0 | Residual rate of Compound (I) (%) ([2]; Condition (2): non-closed state, 40° C., humidity 75%, 3 months): 94.1%
(R)-2-Amino-1,4-dihydro-6-methyl-4-(3-nitrophenyl)-3,5-pyridinedicarboxylic acid 3-(1-diphenylmethylazetidin-3-yl) ester 5-isopropyl Ester Disulfate Dihydrate [Comparative Example 1, reference compound] |  |  | 0.4 | 99.3 | 84.4 | 96.8 | 99.3 | 68.0 |  | 
CC1=C(C(=O)OC(C)C)[C@@H](c2cccc([N+](=O)[O-])c2)C(C(=O)OC2CN(C(c3ccccc3)c3ccccc3)C2)=C(N)N1.CS(=O)(=O)O.CS(=O)(=O)O [Comparative Example 3, (R)-2-Amino-1,4-dihydro-6-methyl-4-(3-nitrophenyl)-3,5-pyridinedicarboxylic Acid 3-(1-diphenylmethylazetidin-3-yl) Ester 5-isopropyl Ester Dimethanesulfonate, reference compound] |  |  | 90.0 | 99.3 | 0.0 | 0.1 | 99.3 | 93.2 | 84.1 | 
CC1=C(C(=O)OC(C)C)[C@@H](c2cccc([N+](=O)[O-])c2)C(C(=O)OC2CN(C(c3ccccc3)c3ccccc3)C2)=C(N)N1.O=S(=O)(O)O [Comparative Example 2, (R)-2-Amino-1,4-dihydro-6-methyl-4-(3-nitrophenyl)-3,5-pyridinedicarboxylic Acid 3-(1-diphenylmethylazetidin-3-yl) Ester 5-isopropyl Ester Monosulfate, reference compound] |  |  | 24.3 | 93.1 |  | 8.9 | 93.1 | 25.0 |  | 
